Patent publication EP4650351A1, “INHIBITOR OF COMPLEMENT FACTOR B” (Nanjing Chia Tai Tianqing Pharmaceutical Co., Ltd., priority 2023, dated 2024)
pIC50: −log10 of the molar value.

Legend:
[1] = system: alternative complement pathway in human serum; assay: Complement deposition assay of serum alternative pathway (Wieslab Complement system Alternative pathway kit); format: biochemical; conditions: human serum diluted 18-fold, 37 °C 60 minutes, absorbance 405 nm
Method: The Wieslab® Complement system Alternative pathway kit (WIESLAB® Complement system Alternative pathway AP330 RUO) was used to detect the inhibitory activity of the compounds on the alternative complement pathway in human serum. Human serum was diluted 18-fold with the kit diluent. The diluted serum was added to a 96-well plate at 130 µL/well. Using a compound titrator (Tecan, D300e), test compounds at corresponding concentrations were added. The test concentration of the compounds started at 10 µM, with 3-fold serial dilution for 6 concentration points, detected in single wells. The DMSO ratio was uniformly adjusted to 0.1% using DMSO in all drug-treated wells. In the positive control wells, 0.1% DMSO and 130 µL of diluted serum were added; in the negative control wells, 0.1% DMSO and 130 µL of the kit diluent were added. The mixtures were pre-incubated at room temperature for 15 min. The incubated mixtures were transferred to the 96-well plate provided by the kit at 100 µL per well, incubated at 37 °C for 60 minutes, and the liquid in the wells was discarded. 300 µL of the washing solution in the kit was added to each well. The wells were washed three times. 100 µL of the conjugated antibody Conjugate in the kit was added to each well, and it was incubated at room temperature for 30 minutes. The liquid in the wells was removed. 300 µL of the washing solution in the kit was added to each well and the wells were washed three times. 100 µL of the substrate solution was added to each well and incubated at room temperature for 30 minutes. […] Table 2. Results of complement deposition in serum alternative pathway

[2] = molecular target: T1, human complement factor B (Homo sapiens, UniProt P00751); assay: TR-FRET competitive binding assay of human complement factor B (Cy5-labeled probe); conditions: inhibitory activity against complement factor B; biotin-labeled factor B 25 nM, Cy5 probe 75 nM, 4 °C
T1 construct: purchased ComplementTech A135
T1 sequence (P00751 26-764): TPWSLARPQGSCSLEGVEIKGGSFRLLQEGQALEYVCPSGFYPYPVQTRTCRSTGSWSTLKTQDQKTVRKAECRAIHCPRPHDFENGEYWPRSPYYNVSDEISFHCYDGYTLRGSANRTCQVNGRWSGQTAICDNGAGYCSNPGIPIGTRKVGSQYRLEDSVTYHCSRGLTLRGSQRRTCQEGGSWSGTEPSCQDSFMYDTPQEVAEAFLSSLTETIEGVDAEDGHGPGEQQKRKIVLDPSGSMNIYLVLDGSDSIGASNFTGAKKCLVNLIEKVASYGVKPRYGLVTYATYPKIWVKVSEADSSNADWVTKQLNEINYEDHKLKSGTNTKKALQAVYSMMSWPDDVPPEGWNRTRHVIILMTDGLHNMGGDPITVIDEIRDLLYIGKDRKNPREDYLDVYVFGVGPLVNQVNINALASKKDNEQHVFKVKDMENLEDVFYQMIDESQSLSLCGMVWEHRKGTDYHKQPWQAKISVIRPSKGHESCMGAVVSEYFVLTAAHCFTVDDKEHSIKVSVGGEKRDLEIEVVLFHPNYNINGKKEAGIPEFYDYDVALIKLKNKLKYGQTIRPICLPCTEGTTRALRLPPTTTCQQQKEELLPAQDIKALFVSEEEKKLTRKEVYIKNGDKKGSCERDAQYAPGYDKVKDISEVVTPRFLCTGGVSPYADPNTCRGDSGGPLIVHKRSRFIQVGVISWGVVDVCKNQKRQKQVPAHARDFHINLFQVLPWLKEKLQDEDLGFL

[3] = Pharmacokinetic study in mice; format: in vivo; conditions: mouse, 10 mg/kg, PO (10 mpk), male ICR (CD-1) mice, plasma; for AUC(0-t): read-out: AUC0-24
Method: Experimental Example 3: Pharmacokinetic study in mice
Purpose of the experiment: To investigate the plasma pharmacokinetics in male ICR (CD-1) mice after single intravenous administration and gavage administration of the compounds of the present disclosure.
Experimental animals: Male ICR (CD-1) mice, body weight 32-35 g; supplier: Vital River Laboratory Animal Technology Co., Ltd.
Experimental procedures: Intravenous Administration (IV); Oral Gavage (PO); the dose was 10 mg/kg (vehicle: water (containing 0.5% methylcellulose (w/v) and 0.5% Tween 80 (v/v)).
Sample collection: At each set time point, 40 µL of blood was collected from the orbital sinus of the experimental animals. Whole blood samples were placed in anticoagulant tubes containing EDTA-K2. The whole blood samples were centrifuged at 1500 g for 10 min to separate plasma. The upper-layer plasma samples were collected into sample tubes for LC-MS/MS analysis.
Data analysis: Plasma concentrations were processed using the non-compartmental model in WinNonlin™Version6.3 (Pharsight, Mountain View, CA) pharmacokinetic software. Pharmacokinetic parameters Cl, T1/2, Cmax, and AUC0-24 were calculated using the linear-log trapezoidal method, and the results were shown in the table below. Table 3. Results of the pharmacokinetic study

Row | SMILES | pIC50 [2] | further results
1 | CCCN1CCN(Cc2c(OC)cc(C)c3[nH]ccc23)C(c2ccc(C(=O)O)cc2)C1 (racemic) [Example 1-2, (±)4-(1-((5-methoxy-7-methyl-1H-indol-4-yl)methyl)-4-propylpiperazin-2-yl)benzoic acid] |  | pIC50 [1]: 6.88
2 | COc1cc(C)c2[nH]ccc2c1CN1CCN(C2COC2)CC1c1ccc(C(=O)O)cc1 (racemic) [Example 3, (±)-4-(1-((5-methoxy-7-methyl-1H-indol-4-yl)methyl)-4-(oxetan-3-yl)piperazin-2-yl)benzoic acid] | < 6.00 | 
3 | COc1cc(C)c2[nH]ccc2c1CN1CCN(CC2CC2)CC1c1ccc(C(=O)O)cc1 (racemic) [Example 4, (±)4-(4-(cyclopropylmethyl)-1-((5-methoxy-7-methyl-1H-indol-4-yl)methyl)piperazin-2-yl)benzoic acid] | < 6.00 | 
4 | COc1cc(C)c2[nH]ccc2c1CN1CCN(CC2CC2(F)F)CC1c1ccc(C(=O)O)cc1 (racemic) [Example 5, (±)4-(4-((2,2-difluorocyclopropyl)methyl)-1-((5-methoxy-7-methyl-1H-indol-4-yl)methyl)piperazin-2-yl)benzoic acid] | 6.69 | 
5 | COc1cc(C)c2[nH]ccc2c1CN1CCN(CC(F)F)CC1c1ccc(C(=O)O)cc1 (racemic) [Example 6-1, (±)4-(4-(2,2-difluoroethyl)-1-((5-methoxy-7-methyl-1H-indol-4-yl)methyl)piperazin-2-yl)benzoic acid] | < 6.00 | 
6 | COc1cc(C)c2[nH]ccc2c1CN1CCN(CC(F)F)CC1c1ccc(C(=O)O)cc1 (racemic) [Example 6-2, (±)4-(4-(2,2-difluoroethyl)-1-((5-methoxy-7-methyl-1H-indol-4-yl)methyl)piperazin-2-yl)benzoic acid] |  | pIC50 [1]: 6.67
7 | COc1cc(C)c2[nH]ccc2c1CN1CCN(CCC(F)(F)F)CC1c1ccc(C(=O)O)cc1 (racemic) [Example 9, (±)4-(1-((5-methoxy-7-methyl-1H-indol-4-yl)methyl)-4-(3,3,3-trifluoropropyl)piperazin-2-yl) benzoic acid] | 7.55 | 
8 | COc1cc(C)c2[nH]ccc2c1CN1CCN(C2CC(C(F)(F)F)C2)CC1c1ccc(C(=O)O)cc1 (racemic) [Example 10-2, (±)4-(1-((5-methoxy-7-methyl-1H-indol-4-yl)methyl)-4-(3-(trifluoromethyl)cyclobutyl)piperazin-2-yl)benzoic acid] | 6.93 | 
9 | COc1cc(C)c2[nH]ccc2c1CN1CCN(CC(F)(F)F)CC1c1ccc(C(=O)O)cc1 (racemic) [Example 11-2, (±)4-(1-((5-methoxy-7-methyl-1H-indol-4-yl)methyl)-4-(2,2,2-trifluoroethyl)piperazin-2-yl) benzoic acid] | 7.15 | 
10 | COc1cc(C)c2[nH]ccc2c1O[C@H]1CCN(CCC(F)(F)F)C[C@@H]1c1ccc(C(=O)O)cc1 (single isomer, unassigned) [Example 15a-2] |  | pIC50 [1]: 7.26
11 | COc1cc(C)c2[nH]ccc2c1SC1CCN(CC(F)F)CC1c1ccc(C(=O)O)cc1 (single isomer, unassigned) [Example 16-4] | 6.71 | 
12 | [2H]C([2H])([2H])Oc1cc(C)c2[nH]ccc2c1O[C@H]1CCN(CCC(F)(F)F)C[C@@H]1c1ccc(C(=O)O)cc1 (single isomer, unassigned) [Example 17a-2] |  | Cmax [3]: 679 ng/mL; AUC(0-t) [3]: 6480 ng·h/mL
13 | CCOC1CCC(Sc2c(OC)cc(C)c3[nH]ccc23)C(c2ccc(C(=O)O)cc2)C1 (single isomer, unassigned) [Example 19a-2] | 6.65 | 
14 | CCOC1CCC(Sc2c(OC)cc(C)c3[nH]ccc23)C(c2ccc(C(=O)O)cc2)C1 (single isomer, unassigned) [Example 19a-4] | 6.59 | 
15 | CCOC1CCC(Sc2c(OC)cc(C)c3[nH]ccc23)C(c2ccc(C(=O)O)cc2)C1 (single isomer, unassigned) [Example 19b-2] | 8.10 | pIC50 [1]: 6.98
16 | CCOC1CCC(Sc2c(OC)cc(C)c3[nH]ccc23)C(c2ccc(C(=O)O)cc2)C1 (single isomer, unassigned) [Example 19b-4] | 6.75 | 
17 | CCOC1CCC(Oc2c(OC)cc(C)c3[nH]ccc23)C(c2ccc(C(=O)O)cc2)C1 (single isomer, unassigned) [Example 20a-4] | 7.91 | pIC50 [1]: 7.06
18 | Cc1cc(OC(F)F)c(OC2CCN(CCC(F)(F)F)CC2c2ccc(C(=O)O)cc2)c2cc[nH]c12 (single isomer, unassigned) [Example 25-2] | 7.62 | 
19 | CCOC1CCC(Cc2c(OC)cc(C)c3[nH]ccc23)N(c2ccc(C(=O)O)cc2)C1 (single isomer, unassigned) [Example 32a-2, 4-(5-ethoxy-2-((5-methoxy-7-methyl-1H-indol-4-yl)methyl)piperidin-1-yl)benzoic acid] | 6.22 | 
20 | CCOC1CCC(Cc2c(OC)cc(C)c3[nH]ccc23)N(c2ccc(C(=O)O)cc2)C1 (single isomer, unassigned) [Example 32a-4, 4-(5-ethoxy-2-((5-methoxy-7-methyl-1H-indol-4-yl)methyl)piperidin-1-yl)benzoic acid] | 6.55 | 
21 | COc1cc(C)c2[nH]ccc2c1O[C@H]1CCN(CC(F)F)C[C@@H]1c1ccc(C(=O)O)cc1 [Example 13a-1, 4-((3S,4S)-1-(2,2-difluoroethyl)-4-((5-methoxy-7-methyl-1H-indol-4-yl)oxy)piperidin-3-yl)benzoic acid] | 6.01 | 
22 | [2H]C([2H])([2H])Oc1cc(C)c2[nH]ccc2c1O[C@@H]1CCN(CC(F)F)C[C@H]1c1ccc(C(=O)O)cc1 [Example 26, 4-((3R,4R)-1-(2,2-difluoroethyl)-4-((5-(methoxy-d3)-7-methyl-1H-indol-4-yl)oxy)piperidin-3-yl) benzoic acid] | 7.92 | Cmax [3]: 944 ng/mL; AUC(0-t) [3]: 4960 ng·h/mL
23 | [2H]C([2H])([2H])Oc1cc(C)c2[nH]ccc2c1O[C@@H]1CCN(CC(F)(F)F)C[C@H]1c1ccc(C(=O)O)cc1 [Example 27, 4-((3R,4R)-4-((5-(methoxy-d3)-7-methyl-1H-indol-4-yl)oxy)-1-(2,2,2-trifluoroethyl)piperidin-3-yl) benzoic acid] | 8.04 | 
24 | Cc1cc(OC(F)F)c(O[C@@H]2CCN(CC(F)(F)F)C[C@H]2c2ccc(C(=O)O)cc2)c2cc[nH]c12 [Example 28, 4-((3R,4R)-4-((5-(difluoromethoxy)-7-methyl-1H-indol-4-yl)oxy)-1-(2,2,2-trifluoroethyl)piperidin-3-yl)benzoic acid] | 7.34 | 
25 | Cc1cc(OC(F)F)c(O[C@@H]2CCN(CC(F)F)C[C@H]2c2ccc(C(=O)O)cc2)c2cc[nH]c12 [Example 29, 4-((3R,4R)-1-(2,2-difluoroethyl)-4-((5-(difluoromethoxy)-7-methyl-1H-indol-4-yl)oxy)piperidin-3-yl) benzoic acid] | 7.51 | 
26 | Cc1cc(OC(F)(F)F)c(O[C@@H]2CCN(CC(F)F)C[C@H]2c2ccc(C(=O)O)cc2)c2cc[nH]c12 [Example 30, 4-((3R,4R)-1-(2,2-difluoroethyl)-4-((7-methyl-5-(trifluoromethoxy)-1H-indol-4-yl)oxy)piperidin-3-yl)benzoic acid] | 7.14 | 
27 | Cc1cc(OC(F)(F)F)c(O[C@@H]2CCN(CC(F)(F)F)C[C@H]2c2ccc(C(=O)O)cc2)c2cc[nH]c12 [Example 31, 4-((3R,4R)-4-((7-methyl-5-(trifluoromethoxy)-1H-indol-4-yl)oxy)-1-(2,2,2-trifluoroethyl)piperidin-3-yl)benzoic acid] | 6.37 | 
28 | COc1cc(C)c2[nH]ccc2c1O[C@@H]1CCN(CC(F)(F)F)C[C@H]1c1ccc(-c2n[nH]c(=O)o2)cc1 [Example 33, 5-(4-((3R,4R)-4-((5-methoxy-7-methyl-1H-indol-4-yl)oxy)-1-(2,2,2-trifluoroethyl)piperidin-3-yl)phenyl)-1,3,4-oxadiazol-2(3H)-one] | 7.63 | 
29 | CCO[C@H]1CCN(Cc2c(OC)cc(C)c3[nH]ccc23)[C@H](c2ccc(C(=O)O)cc2)C1 [LNP023, reference compound] |  | Cmax [3]: 1160 ng/mL; AUC(0-t) [3]: 4110 ng·h/mL
